Experimental data from patent US12509437B2, “Substituted thiophene carboxamides and derivatives thereof as microbicides” (Bayer Aktiengesellschaft, priority 2019, dated 2025).

What was measured:
[1] = test system: Colletotrichum lindemuthianum; assay: In vivo preventive test on Colletotrichum lindemuthianum (Anthracnose on bean); conditions: Colletotrichum lindemuthianum, 144 h, sprayed 72 hours before inoculation, evaluated 6 days after inoculation, read-out: efficacy; for pest or weed control at 500 ppm: 500 ppm of active ingredient; for pest or weed control at 31 ppm: 31 ppm of active ingredient; for pest or weed control at 125 ppm: 125 ppm of active ingredient
How it was run: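 Young bean plants were sprayed with compound in acetone/DMSO/Tween diluted in water, then inoculated 72 h later with C. lindemuthianum spores. Incubation was 24 h at 20 °C/100% RH, then 5 days at 20 °C/90% RH. Efficacy scored 6 days post-inoculation: 0% equals solvent-treated control, 100% means no disease.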

[2] = test system: Pseudomonas syringae pv. tomato; assay: In vivo preventive test on Pseudomonas syringae pv. tomato (bacterial speck on tomato); conditions: sprayed 72 hours before inoculation, evaluated 5 or 6 days after inoculation, read-out: efficacy; for pest or weed control at 500 ppm: 500 ppm of active ingredient; for pest or weed control at 31 ppm: 31 ppm of active ingredient; for pest or weed control at 125 ppm: 125 ppm of active ingredient
Protocol: The tested active ingredients were prepared by homogenization in a mixture of acetone/Dimethyl sulfoxide/Tween®, and then diluted with water to obtain the desired active material concentration.
The young plants of tomato were treated by spraying the active ingredient prepared as described above. Control plants were treated only with an aqueous solution of acetone/Dimethyl sulfoxide/Tween®.
After 72 hours, the plants were contaminated by spraying the leaves with an aqueous bacteria suspension of Pseudomonas syringae pv. tomato. The contaminated tomato plants were incubated for 4 days in saturated atmosphere at 22° C. day/20° C. night−70% HR and then for 1 or 2 days at 22° C. day/20° C. night at 70-80% relative humidity.
The test was evaluated 5 or 6 days after the inoculation. 0% means an efficacy which corresponds to that of the control plants while an efficacy of 100% means that no disease was observed.

| Structure (SMILES) | pest or weed control at 500 ppm [1] [%] | pest or weed control at 500 ppm [2] [%] | pest or weed control at 31 ppm [1] [%] | pest or weed control at 125 ppm [1] [%] | pest or weed control at 31 ppm [2] [%] | pest or weed control at 125 ppm [2] [%] |
| --- | --- | --- | --- | --- | --- | --- |
| COC(=O)C(NC(=O)c1sc(Br)c(Br)c1C)C1CC1 (centres unmarked) [I.032] | 70 to 79 | 70 to 79 | – | – | – | – |
| CCOC(=O)C(C#N)NC(=O)c1sc(Br)c(Br)c1C (centres unmarked) [I.077] | 90 to 100 | 80 to 89 | 80 to 89 | 80 to 89 | – | – |
| Cc1c(C(=O)NC(C(=O)O)C2CC2)sc(Br)c1Br (centres unmarked) [I.080, cyclopropyl{[(4,5-dibromo-3-methyl-2-thienyl)carbonyl]amino}acetic acid] | 70 to 79 | 70 to 79 | – | – | – | – |
| CCOC(=O)C1(NC(=O)c2sc(Cl)c(Cl)c2C)CCC1 [I.047] | 90 to 100 | – | 90 to 100 | 90 to 100 | 70 to 79 | 90 to 100 |
| COC(=O)C(NC(=O)c1sc(Cl)c(Cl)c1C)C1CC1 (centres unmarked) [I.081, methyl cyclopropyl{[(4,5-dichloro-3-methyl-2-thienyl)carbonyl]amino}acetate] | 80 to 89 | – | – | – | – | 70 to 79 |
| COC(=O)CC[C@H](NC(=O)c1sc(Cl)c(Cl)c1C)C(=O)OC [I.122] | 80 to 89 | 80 to 89 | ≥ 70 | 70 to 79 | 70 to 79 | 80 to 89 |
| Cc1c(C(=O)NC(C(=O)O)C2CC2)sc(Cl)c1Cl (centres unmarked) [I.095] | – | 80 to 89 | – | 70 to 79 | – | 70 to 79 |
| Cc1c(C(=S)NC2(C(=O)O)CC2)sc(Cl)c1Cl [I.060] | – | 70 to 79 | – | 80 to 89 | – | – |
